{"source": "paper PMC11089511", "about": "(Journal of Medicinal Chemistry, 2024)", "key": {"[1]": {"target": "wild-type TTR in human plasma (Homo sapiens, UniProt P02766)", "assay": "Ex vivo competitive binding assay using a fluorogenic probe in human plasma", "settings": "for binding to TTR in human plasma (probe fluorescence intensity), in words: 6 h of incubation, Figure 3 / Figures S2–S4"}, "[2]": {"settings": "cited from earlier work"}, "[3]": {"settings": "cited from earlier work", "remark": "listed apart in the source"}, "[4]": {"settings": "cited from earlier work", "remark": "listed apart in the source"}}}
{"smiles": "CCc1oc2ccc(Cl)c(Cl)c2c1C(=O)c1cc(I)c(O)c(I)c1", "note": "[Compound 18, (4,5-Dichloro-2-ethylbenzofuran-3-yl)(4-hydroxy-3,5-diiodophenyl)methanone]", "values": [{"measurement": "binding to TTR in human plasma (probe fluorescence intensity), in words", "setting": "[1]", "value": "remarkably reduced compared to that of 7"}]}
{"smiles": "CCc1sc2ccccc2c1C(=O)c1cc(I)c(O)c(I)c1", "note": "[Compound 14, (2-Ethylbenzo[b]thien-3-yl)(4-hydroxy-3,5-diiodophenyl)methanone]", "values": [{"measurement": "binding to TTR in human plasma (probe fluorescence intensity), in words", "setting": "[1]", "value": "weaker binding compared to 3"}]}
{"smiles": "O=C(O)c1ccc2nc(-c3cc(Cl)cc(Cl)c3)oc2c1", "note": "[Compound 1, Tafamidis]", "values": [{"measurement": "PAMPA permeability", "setting": "[2]", "value": ">50 ×10^–6 cm/s"}, {"measurement": "aqueous solubility pH 6.8", "setting": "[3]", "value": ">100", "unit": "μM"}, {"measurement": "hepatic microsome stability in rats", "setting": "[4]", "value": 2.32, "unit": "L/h/kg"}]}
{"smiles": "CCc1oc2ccccc2c1C(=O)c1cc(I)c(O)c(I)c1", "note": "[Compound 3, benziodarone]", "values": [{"measurement": "fluorescence intensity of the probe relative to the control (DMSO)", "setting": "[1]; compound 20 μM, human plasma with 5 μM TTR, Figure 2", "value": "approximately 30%"}]}
{"smiles": "CCc1oc2c(Cl)c(Cl)ccc2c1C(=O)c1cc(I)c(O)c(I)c1", "note": "[Compound 19, (6,7-Dichloro-2-ethylbenzofuran-3-yl)(4-hydroxy-3,5-diiodophenyl)methanone]", "values": [{"measurement": "binding to TTR in human plasma (probe fluorescence intensity), in words", "setting": "[1]", "value": "remarkably reduced compared to that of 7"}]}
